The record followed here is patent US10710996B2, “Pyrido-azaheterecydic compound and preparation method and use thereof” (SHANGHAI INSTITUTE OF MATERIA MEDICA, CHINESE ACADEMY OF …, priority 2015, dated 2020).

Assay [1] concerns EBC-1 cells. In words: Inhibition of c-Met-mediated EBC-1 cell proliferation (SRB staining). To be noted: Homo sapiens, 72 hours treatment. In kind it is cell-based. As to the method:
The inhibitory effect of the compounds on the growth of non-small cell cancer EBC-1 cell (a cell line in which Met is continually activated due to the amplification of MET gene, and is a Met-dependent tumor cell line) was measured by sulforhodamine B (SRB) staining assay. A certain amount of EBC-1 cells in their logarithmic growth phase were seeded in 96-well plates at 90 μL per well and cultured overnight, then 10 μL of different concentrations of compounds or solvent control were added thereto, three wells for each concentration. After treated by the compound for 72 hours, the adherent cells were removed of culture medium and fixed with 10% (w/v) trichloroacetic acid (100 μL/well) at 4° C. for 1 hr followed by rinsing with distilled water five times. After drying at room temperature, 100 μL of SRB solution (dissolved in 1% glacial acetic acid at 4 mg/mL) was added to each well to incubate and stain the cells for 15 min at room temperature, then unbound SRB was washed off with 1% glacial acetic acid for five times. After drying at room temperature, 100 μL of 10 mM Tris solution was added to each well. The optical density (OD value) at 515 nm was read on a VERSMax microplate reader. […] The experiment was repeated twice. The IC50 data was calculated as a range based on the test results of concentrations set in the initial screening test.

The target of assay [2] is T1, c-Met kinase (Homo sapiens, UniProt P08581).
T1 construct: c-Met kinase domain recombinant protein diluted with 49 μL of the reaction buffer was added
In words: Inhibitory effect on c-Met kinase activity at molecular level (ELISA).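 Further: recombinant c-Met kinase domain with 5 µM ATP, 1 h at 37 °C, substrate phosphorylation detected by anti-phosphotyrosine PY99 ELISA at 490 nm versus DMSO negative control, ATP-free wells as blank.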 In kind it is biochemical. A general note: ELISA stands for enzyme-linked immunosorbent assay.
Procedure: Experiment for Preliminarily Evaluating the Inhibitory Effect on the Activity of Receptor Tyrosine Kinase c-Met at Molecular Level
After discarding the liquid in the wells, the plate was washed with T-PBS (0.1% Tween-20 in PBS) in an amount of 200 μL/well three times, each for 5 minutes. The ELISA plate was dried in an oven at 37° C. for 1-2 hours. 50 μl of adenosine triphosphate (ATP) solution diluted with reaction buffer (50 mM 4-hydroxyethylpiperazine ethanesulfonic acid (HEPES) pH 7.4, 50 mM MgCl2, 0.5 mM MnCl2, 0.2 mM Na3VO4, 1 mM dithiothreitol (DTT)) to a final concentration of 5 μM was added to each well. The compounds were diluted to an appropriate concentration with DMSO (1 μL/well) or a solution containing DMSO in a corresponding concentration (negative control well), and then c-Met kinase domain recombinant protein diluted with 49 μL of the reaction buffer was added therein to initiate the reaction, with two ATP-free control wells for each test. The plate was placed in a shaker (100 rpm) at 37° C. for reacting 1 hour, and washed with T-PBS three times. Primary antibody PY99 diluent was added in an amount of 100 μL/well to allow the reaction in a shaker at 37° C. for 0.5 hour, and then the plate was washed with T-PBS three times. Then the secondary antibody horseradish peroxidase labeled goat anti-mouse IgG diluent was added in an amount of 100 μL/well, and the plate was placed in a shaker at 37° C. for reacting 0.5 hour, and then washed with T-PBS three times. 2 mg/ml of o-phenylenediamine (OPD) coloring solution (diluted with 0.1 M citric acid-sodium citrate buffer (pH=5.4) containing 0.03% H2O2) was then added at 100 μL/well and reacted at 25° C. for 1-10 min with light blocked (ultrasound was required to dissolve OPD, the coloring solution was prepared when needed). The reaction was stopped by adding 2 M of H2SO4 in an amount of 50 μL/well, and a wavelength-adjustable microplate reader SPECTRA MAX 190 was read at 490 nm.
The inhibition rate of the sample was calculated by the following equation:

Structures are written as SMILES.

T1 sequence (P08581 1078-1345 limits assumed): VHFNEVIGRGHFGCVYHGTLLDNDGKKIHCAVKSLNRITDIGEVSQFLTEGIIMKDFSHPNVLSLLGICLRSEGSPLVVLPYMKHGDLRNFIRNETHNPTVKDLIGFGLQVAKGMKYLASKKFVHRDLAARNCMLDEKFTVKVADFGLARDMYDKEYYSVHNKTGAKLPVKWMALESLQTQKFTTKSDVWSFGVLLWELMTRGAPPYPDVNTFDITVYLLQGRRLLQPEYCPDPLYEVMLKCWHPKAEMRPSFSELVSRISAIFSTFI

As usually defined, the IC50 is the point on the concentration scale where inhibition reaches its midpoint. Low values mean greater potency in that assay, high ones weaker potency in that assay. Take `O=C(Nc1ccc(F)cc1)C1(C(=O)Nc2ccc(Oc3ccnc4cc(Cl)ncc34)c(F)c2)CC1` [Compound 1S, N-(4-((7-chloro-1,6-naphthyridin-4-yl)oxy)-3-fluorophenyl)-N-(4-fluorophenyl) cyclopropyl-1,1-dicarboxamide]: the values for the IC50 in assay [1] and in assay [2] were 0.1 to 1 µM and 1 to 10 µM, respectively.
In the same order, the values of `CN(C)c1cc2nccc(Oc3ccc(NC(=O)C4(C(=O)Nc5ccc(F)cc5)CC4)cc3F)c2cn1` [Compound 2S, N-(4-((7-(dimethylamino)-1,6-naphthyridin-4-yl)oxy)-3-fluorophenyl)-N-(4-fluorophenyl)cyclopropyl-1,1-dicarboxamide] are 0.01 to 0.1 µM and 0.001 to 0.01 µM.
For `COc1cc2nccc(Oc3ccc(NC(=O)C4(C(=O)Nc5ccc(F)cc5)CC4)cc3F)c2cn1` [Compound 3S, N-(4-((7-methoxy-1,6-naphthyridin-4-yl)oxy)-3-fluorophenyl)-N-(4-fluorophenyl)cyclopropyl-1,1-dicarboxamide], the IC50 fell in the range of 0.1 to 1 µM in assay [1] and 0.001 to 0.01 µM in assay [2].
In the same order, the values of `CN1CCC(COc2cc3nccc(Oc4ccc(NC(=O)C5(C(=O)Nc6ccc(F)cc6)CC5)cc4F)c3cn2)CC1` [Compound 9S, N-(3-fluoro-4-((7-((1-methylpiperidin-4-yl)methoxy)-1,6-naphthyridin-4-yl)oxy)phenyl)-N-(4-fluorophenyl) cyclopropyl-1,1-dicarboxamide] are 0.01 to 0.1 µM and 0.001 to 0.01 µM.
Take `CN1CCN(CCOc2cc3nccc(Oc4ccc(NC(=O)C5(C(=O)Nc6ccc(F)cc6)CC5)cc4F)c3cn2)CC1` [Compound 11S, N-(3-fluoro-4-((7-(2-(4-methylpiperazin-1-yl)ethoxy)-1,6-naphthyridin-4-yl)oxy)phenyl)-N-(4-fluorophenyl) cyclopropyl-1,1-dicarboxamide]: the IC50 was in the range of 0.1 to 1 µM in assay [1] and 0.001 to 0.01 µM in assay [2].
In the case of `O=C(Nc1ccc(F)cc1)C1(C(=O)Nc2ccc(Oc3ccnc4cc(OCCN5CCOCC5)ncc34)cc2)CC1` [Compound 12S, N-(4-fluorophenyl)-N-(4-((7-(2-morpholinoethoxy)-1,6-naphthyridin-4-yl)oxy)phenyl)cyclopropyl-1,1-dicarboxamide], the IC50 is 0.1 to 1 µM in assay [1] and 0.001 to 0.01 µM in assay [2].
As for `O=C(Nc1ccc(F)cc1)C1(C(=O)Nc2ccc(Nc3ccnc4cc(OCCN5CCOCC5)ncc34)cc2)CC1` [Compound 13S, N-(4-fluorophenyl)-N-(4-((7-(2-morpholinoethoxy)-1,6-naphthyridin-4-yl)amino)phenyl)cyclopropyl-1,1-dicarboxamide], the IC50 in assay [1] was 0.1 to 1 µM; in assay [2], 0.001 to 0.01 µM.
In the same order, the values of `O=C(Nc1ccc(Oc2ccnc3cc(OCCN4CCOCC4)ncc23)c(F)c1)c1cccn(-c2ccc(F)cc2)c1=O` [Compound 15S, N-(3-fluoro-4-((7-(2-morpholinoethoxy)-1,6-naphthyridin-4-yl)oxy)phenyl)-1-(4-fluorophenyl)-2-oxo-1,2-dihydropyridine-3-carboxamide] are 0.01 to 0.1 µM and 0.001 to 0.01 µM.
In the same order, the values of `O=C(Nc1ccc(Oc2ccnc3cc(OCCN4CCOCC4)ncc23)c(F)c1)c1c[nH]cc(-c2ccccc2)c1=O` [Compound 20S, N-(3-fluoro-4-((7-(2-morpholinoethoxy)-1,6-naphthyridin-4-yl)oxy)phenyl)-4-oxo-5-phenyl-1,4-dihydropyridine-3-carboxamide] are 0.01 to 0.1 µM and 0.001 to 0.01 µM.
Turning to `O=C(Nc1ccc(Oc2ccnc3cc(OCCN4CCOCC4)ncc23)c(F)c1)c1c[nH]cc(-c2ccc(F)cc2)c1=O` [Compound 22S, N-(3-fluoro-4-((7-(2-morpholinoethoxy)-1,6-naphthyridin-4-yl)oxy)phenyl)-5-(4-fluorophenyl)-4-oxo-1,4-dihydropyridine-3-carboxamide], the IC50 was in the range of 0.01 to 0.1 µM in assay [1] and 0.001 to 0.01 µM in assay [2].
Turning to `O=C(Nc1ccc(F)c(F)c1)C1(C(=O)Nc2ccc(Oc3ccnc4cc(OCCN5CCOCC5)ncc34)c(F)c2)CC1` [Compound 23S, N-(3,4-difluorophenyl)-N-(3-fluoro-4-((7-(2-morpholinoethoxy)-1,6-naphthyridin-4-yl)oxy)phenyl) cyclopropyl-1,1-dicarboxamide], the IC50 lay within 0.1 to 1 µM in assay [1] and 0.001 to 0.01 µM in assay [2].
In the same order, the values of `COc1cc(NC(=O)C2(C(=O)Nc3ccc(Oc4ccnc5cc(OCCN6CCOCC6)ncc45)c(F)c3)CC2)ccc1F` [Compound 24S, N-(4-fluoro-3-methoxyphenyl)-N-(3-fluoro-4-((7-(2-morpholinoethoxy)-1,6-naphthyridin-4-yl)oxy)phenyl) cyclopropyl-1,1-dicarboxamide] are 0.1 to 1 µM and 0.001 to 0.01 µM.
As for `O=C(Nc1ccc(F)cc1)C1(C(=O)Nc2ccc(Oc3ccnc4cc(OCCc5ccncc5)ncc34)c(F)c2)CC1` [Compound 25S, N-(3-fluoro-4-((7-(2-(pyridin-4-yl)ethoxy)-1,6-naphthyridin-4-yl)oxy)phenyl)-N-(4-fluorophenyl)cyclopropyl-1,1-dicarboxamide], the IC50 in assay [1] was 0.1 to 1 µM; in assay [2] it was 0.001 to 0.01 µM.
In the same order, the values of `CC(CN1CCOCC1)Oc1cc2nccc(Oc3ccc(NC(=O)C4(C(=O)Nc5ccc(F)cc5)CC4)cc3F)c2cn1` (stereo not drawn) [Compound 26S, N-(3-fluoro-4-((7-((1-morpholinopropan-2-yl)oxy)-1,6-naphthyridin-4-yl)oxy)phenyl)-N-(4-fluorophenyl) cyclopropyl-1,1-dicarboxamide] are 0.1 to 1 µM and 0.01 to 0.1 µM.
In the same order, the values of `O=C1COCCN1CCOc1cc2nccc(Oc3ccc(NC(=O)C4(C(=O)Nc5ccc(F)cc5)CC4)cc3F)c2cn1` [Compound 37S, N-(3-fluoro-4-((7-(2-(3-oxomorpholino)ethoxy)-1,6-naphthyridin-4-yl)oxy)phenyl)-N-(4-fluorophenyl) cyclopropyl-1,1-dicarboxamide] are 0.01 to 0.1 µM and 0.001 to 0.01 µM.
In the same order, the values of `Cn1cc(-c2cc3nccc(Oc4ccc(NC(=O)C5(C(=O)Nc6ccc(F)cc6)CC5)cc4F)c3cn2)cn1` [Compound 38S, N-(3-fluoro-4-((7-(1-methyl-1H-pyrazol-4-yl)-1,6-naphthyridin-4-yl)oxy)phenyl)-N-(4-fluorophenyl)cyclopropyl-1,1-dicarboxamide] are 0.001 to 0.01 µM and 0.001 to 0.01 µM.
As for `O=C(Nc1ccc(F)cc1)C1(C(=O)Nc2ccc(Oc3ccnc4cc(-c5cn[nH]c5)ncc34)c(F)c2)CC1` [Compound 39S, N-(4-((7-(1H-pyrazol-4-yl)-1,6-naphthyridin-4-yl)oxy)-3-fluorophenyl)-N-(4-fluorophenyl)cyclopropyl-1,1-dicarboxamide], the IC50 in assay [1] and in assay [2] was 0.001 to 0.01 µM in each case.
In the case of `CS(=O)(=O)n1cc(-c2cc3nccc(Oc4ccc(NC(=O)C5(C(=O)Nc6ccc(F)cc6)CC5)cc4F)c3cn2)cn1` [Compound 40S, N-(3-fluoro-4-((7-(1-(methylsulfonyl)-1H-pyrazol-4-yl)-1,6-naphthyridin-4-yl)oxy)phenyl)-N-(4-fluorophenyl) cyclopropyl-1,1-dicarboxamide], the IC50 in assay [1] lay within 0.01 to 0.1 µM; in assay [2], 0.001 to 0.01 µM.
